One data set in a line: Pharmacokinetics in dogs. Type of data set: in vivo. The settings on record: dog.
A further data set has as its target T1, dog ETB receptors (Canis lupus familiaris, UniProt P56497).
T1 construct: from tissue
T1 sequence (P56497 27-442): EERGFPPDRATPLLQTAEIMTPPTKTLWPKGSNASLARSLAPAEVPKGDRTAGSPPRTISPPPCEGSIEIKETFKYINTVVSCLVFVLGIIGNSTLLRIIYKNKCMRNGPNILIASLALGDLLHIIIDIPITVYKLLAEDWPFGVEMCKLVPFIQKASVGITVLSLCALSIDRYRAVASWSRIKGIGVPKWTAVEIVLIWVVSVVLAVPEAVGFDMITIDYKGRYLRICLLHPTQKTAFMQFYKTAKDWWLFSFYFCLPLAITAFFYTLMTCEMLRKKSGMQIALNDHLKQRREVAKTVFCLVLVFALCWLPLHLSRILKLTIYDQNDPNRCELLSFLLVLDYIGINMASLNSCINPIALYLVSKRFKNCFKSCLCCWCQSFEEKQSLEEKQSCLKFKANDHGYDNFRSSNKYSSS
As to the kind of experiment: [125I]ET-3 binding, membranes from dog cerebellum. The text has this:
Relative binding activities are given below in TABLE 3.

A short description of data set [1]: Oral rising single-dose pharmacokinetic study in healthy subjects. Format: in vivo, human.
Data set [2] can be described thus: Distribution, plasma protein binding and excretion. Type of data set: in vivo.
For the next data set, the target named is T2, human ETB receptors (Homo sapiens, UniProt P24530).
T2 construct: expressed in transfected cells; host or cells: CHO cells
T2 sequence (P24530 27-442): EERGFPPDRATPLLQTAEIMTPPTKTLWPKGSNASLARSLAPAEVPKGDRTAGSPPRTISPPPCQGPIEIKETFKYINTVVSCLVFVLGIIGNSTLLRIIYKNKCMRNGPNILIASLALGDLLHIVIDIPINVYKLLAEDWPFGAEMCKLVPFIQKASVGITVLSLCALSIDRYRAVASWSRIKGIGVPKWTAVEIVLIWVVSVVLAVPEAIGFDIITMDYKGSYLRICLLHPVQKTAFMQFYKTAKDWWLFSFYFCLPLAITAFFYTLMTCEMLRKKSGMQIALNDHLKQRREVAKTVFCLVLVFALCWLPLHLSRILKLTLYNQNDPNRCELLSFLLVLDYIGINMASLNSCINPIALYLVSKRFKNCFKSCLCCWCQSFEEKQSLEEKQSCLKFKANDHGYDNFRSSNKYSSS
As to the kind of experiment: [125I]ET-3 binding to recombinant human ETB receptors (CHO cell membranes). The settings on record: [125I]ET-3; CHO cell membranes with cloned human ETB receptors; read-out: ETB, IC50.

Read-outs that look alike come from different tables or passages of the source. Bounds are passed on as bounds.

The source of these data is patent publication US20020115661A1, “Method for treating chronic obstructive pulmonary disease” (priority 2000, published 2002).

As to `CCc1cc(C2=C(C(=O)[O-])N(c3ccccc3C(F)(F)F)S(=O)(=O)c3ccccc32)cc2c1OCO2.[K+]` [CI-1034, 4-(7-Ethyl-1,3-benzodioxol-5-yl)-2-[2-(trifluoromethyl)phenyl]-2H-1 ,2-benzothiazine-3-carboxylic acid 1,1-dioxide monopotassium salt], the bioavailability (commonly the share of a dose that reaches the circulation, judged against a reference dose that is usually intravenous) in the data set “Pharmacokinetics in dogs” (in vivo, po, dogs) was approximately 100%. Besides, the “increase of plasma concentrations with dose” value in “Pharmacokinetics in dogs” (up to 100 mg/kg) is “approximately proportional to dose”. Also, the IC50 (in general, the concentration that inhibits the measured activity by half) at dog ETB receptors is 329 nM; at human ETB receptors, 1600 nM. Moreover, the “Renal excretion of unchanged CI-1034” value in data set [1] (Study 1034-001) was < 3 % of the dose. In addition, the half-life (in general, the time in which the quantity being followed falls by half) in data set [1] (human, plasma, oral, 400-mg dose, read-out: additional elimination half-life (converted)) was approximately 13 h; in data set [1] (human, plasma, single oral doses, Study 1034-001, read-out: elimination half-life (t½)) it was 2 to 4 h. In data set [1] (human, plasma, single oral doses, Study 1034-001, read-out: time to maximal plasma concentrations (tmax)), the Tmax lay in the range of 1 to 3 h. For the same molecule, the “Cmax and AUC(0-∞) with increasing dose” value in data set [1] (single oral doses) is recorded as “slightly more than proportional increases”. Besides, in data set [2] (highest concentrations in liver and blood), the “tissue distribution of radioequivalents” value was “not widely distributed”. Moreover, the plasma protein binding entry in data set [2] (in vivo) is recorded as “highly bound”.
